According to the supplement of paper PMC11208160:

Assay: recombinant barcode read abundance after kanamycin selection (control-corrected) (log10(CPM+1)); higher = more efficient recombination; sequences stand for … in AGTGCAGAGAAAATCGGCCAGTTTTCTCTGCCTGCAGTCCGCATGCCGT…AGATTTATGCAGCGGACTGCCTTTCTCCCAAAGTGATAAACCGGACAGTATCATGGACCGGTTTTCCCGGTAATCCGTATTTGCAAGGTTGGTTTCACT; site = the 11-nt target
In short: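 A vector carrying a T7-inducible recombinase and the last 73 bp of the bridge RNA received, by Gibson cloning, oligos encoding a promoter, target, barcode and the first 104 bridge RNA bases under J23119. The pooled constructs entered E. coli together with a donor plasmid by electroporation. Selection used chloramphenicol/ampicillin/kanamycin with 0.1 mM IPTG, with chloramphenicol/ampicillin LB agar as the control, each in two replicates. Recombination efficiency is the averaged, control-corrected counts-per-million of barcodes at recombinant junctions, reported as log10(CPM+1).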
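Also: IS621 recombinase and bridge RNA in Escherichia coli cells.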

Sequence: GGGACAGCTTGGGTTCTAACCTGTTGCCT (site GAGACAACTAG)
- recombinant barcode read abundance (log10): 0.15

Sequence: GGGACAGCTTGGGTTCTAACCTGTTGCCT (site GGGACAGCTAG)
- recombinant barcode read abundance (log10): 1.12

Sequence: GGGACCTCTTGGGTTCTAACCTGTTGCGT (site GGGACCTCTAC)
- recombinant barcode read abundance (log10): 2.68

Sequence: GGGACCTCTTGGGTTCTAACCTGTTGCGT (site GGGACCTCTCC)
- recombinant barcode read abundance (log10): 0.201

Sequence: GGGACGCCTTGGGTTCTAACCTGTTGCAT (site GAGCCGCCTAT)
- recombinant barcode read abundance (log10): 0.0802

Sequence: GGGACGCCTTGGGTTCTAACCTGTTGCAT (site GGGACGCCTAT)
- recombinant barcode read abundance (log10): 1.17

Sequence: GGGATACCTTGGGTTCTAACCTGTTGCTA (site GGGATACCTTA)
- recombinant barcode read abundance (log10): 1.37

Sequence: GGGATACCTTGGGTTCTAACCTGTTGCTA (site TATGGTACTAC)
- recombinant barcode read abundance (log10): 0.292

Sequence: GGGCACTCTTGGGTTCTAACCTGTTGCGT (site GGGCACTCTAA)
- recombinant barcode read abundance (log10): 0.559

Sequence: GGGCACTCTTGGGTTCTAACCTGTTGCGT (site GGGCACTCTAC)
- recombinant barcode read abundance (log10): 2.97

Sequence: GGGCACTCTTGGGTTCTAACCTGTTGCGT (site GGGCACTCTAG)
- recombinant barcode read abundance (log10): 0.161

Sequence: GGGCACTCTTGGGTTCTAACCTGTTGCGT (site GGGCACTCTAT)
- recombinant barcode read abundance (log10): 2.27

Sequence: GGGCTCACTTGGGTTCTAACCTGTTGCCT (site GGGCTCACTAG)
- recombinant barcode read abundance (log10): 0.983

Sequence: GGGCTCACTTGGGTTCTAACCTGTTGCCT (site GGTCCCACTAG)
- recombinant barcode read abundance (log10): 0.184

Sequence: GGGCTCCCTTGGGTTCTAACCTGTTGCCG (site GGGCTCCCTCG)
- recombinant barcode read abundance (log10): 1.92

Sequence: GGGCTCCCTTGGGTTCTAACCTGTTGCCG (site TACAATTCTAT)
- recombinant barcode read abundance (log10): 0.128

Sequence: GGGCTTACTTGGGTTCTAACCTGTTGCCT (site GAGCTTACTAG)
- recombinant barcode read abundance (log10): 0.695

Sequence: GGGCTTACTTGGGTTCTAACCTGTTGCCT (site GCGCTTACTAG)
- recombinant barcode read abundance (log10): 0.362

Sequence: GGGCTTACTTGGGTTCTAACCTGTTGCCT (site GGGCTTACTAG)
- recombinant barcode read abundance (log10): 0.178

Sequence: GGGCTTACTTGGGTTCTAACCTGTTGCCT (site GTGCTTACTAG)
- recombinant barcode read abundance (log10): 0.325

Sequence: GGGGACCCTTGGGTTCTAACCTGTTGCGG (site GGGGACCCTAC)
- recombinant barcode read abundance (log10): 2.34

Sequence: GGGGACCCTTGGGTTCTAACCTGTTGCGG (site GGGGACCCTCC)
- recombinant barcode read abundance (log10): 3.01

Sequence: GGGGACCCTTGGGTTCTAACCTGTTGCGG (site GGGGACCCTGC)
- recombinant barcode read abundance (log10): 0.667

Sequence: GGGGACCCTTGGGTTCTAACCTGTTGCGG (site GGGGACCCTTC)
- recombinant barcode read abundance (log10): 1.55

Sequence: GGGGACCCTTGGGTTCTAACCTGTTGCGT (site GGGGACCCTAC)
- recombinant barcode read abundance (log10): 3.4

Sequence: GGGGACCCTTGGGTTCTAACCTGTTGCGT (site GGGGACCCTCC)
- recombinant barcode read abundance (log10): 1.46

Sequence: GGGGACCCTTGGGTTCTAACCTGTTGCGT (site GGGGACCCTGC)
- recombinant barcode read abundance (log10): 1.44

Sequence: GGGGACCCTTGGGTTCTAACCTGTTGCGT (site GGGGACCCTTC)
- recombinant barcode read abundance (log10): 1.18

Sequence: GGGGAGTCTTGGGTTCTAACCTGTTGCTT (site GGGGAGCCTCA)
- recombinant barcode read abundance (log10): 0.16

Sequence: GGGGAGTCTTGGGTTCTAACCTGTTGCTT (site GGGGAGTCTAA)
- recombinant barcode read abundance (log10): 2.26

Sequence: GGGGCAACTTGGGTTCTAACCTGTTGCTA (site CGGGCTACTTA)
- recombinant barcode read abundance (log10): 0.0424

Sequence: GGGGCAACTTGGGTTCTAACCTGTTGCTA (site GGGGCAACTTA)
- recombinant barcode read abundance (log10): 0.388

Sequence: GGGGCACCTTGGGTTCTAACCTGTTGCCT (site GGGGCACCTAA)
- recombinant barcode read abundance (log10): 0.216

Sequence: GGGGCACCTTGGGTTCTAACCTGTTGCCT (site GGGGCACCTAC)
- recombinant barcode read abundance (log10): 0.0542

Sequence: GGGGCACCTTGGGTTCTAACCTGTTGCCT (site GGGGCACCTAG)
- recombinant barcode read abundance (log10): 1.15

Sequence: GGGGCACCTTGGGTTCTAACCTGTTGCCT (site GGGGCACCTAT)
- recombinant barcode read abundance (log10): 0.556

Sequence: GGGGCACCTTGGGTTCTAACCTGTTGCTT (site GGGGCACCTAA)
- recombinant barcode read abundance (log10): 2.29

Sequence: GGGGCACCTTGGGTTCTAACCTGTTGCTT (site GGGGCACCTAC)
- recombinant barcode read abundance (log10): 0.68

Sequence: GGGGCACCTTGGGTTCTAACCTGTTGCTT (site GGGGCACCTAG)
- recombinant barcode read abundance (log10): 1.48

Sequence: GGGGCACCTTGGGTTCTAACCTGTTGCTT (site GGGGCACCTAT)
- recombinant barcode read abundance (log10): 2.06

Sequence: GGGGCGTCTTGGGTTCTAACCTGTTGCTT (site GGGGCATCTAA)
- recombinant barcode read abundance (log10): 1.54

Sequence: GGGGCGTCTTGGGTTCTAACCTGTTGCTT (site GGGGCCTCTAA)
- recombinant barcode read abundance (log10): 0.0129

Sequence: GGGGCGTCTTGGGTTCTAACCTGTTGCTT (site GGGGCGTCTAA)
- recombinant barcode read abundance (log10): 2.16

Sequence: GGGGCGTCTTGGGTTCTAACCTGTTGCTT (site GGGGCTTCTAA)
- recombinant barcode read abundance (log10): 0.0767

Sequence: GGGGCTACTTGGGTTCTAACCTGTTGCCT (site GGGGCTACTAG)
- recombinant barcode read abundance (log10): 0.396

Sequence: GGGGCTACTTGGGTTCTAACCTGTTGCCT (site GGGGCTACTGT)
- recombinant barcode read abundance (log10): 0.183

Sequence: GGGGTCCCTTGGGTTCTAACCTGTTGCTT (site CTCAAAGCTTC)
- recombinant barcode read abundance (log10): 0.0621

Sequence: GGGGTCCCTTGGGTTCTAACCTGTTGCTT (site GGGGTCCCTAA)
- recombinant barcode read abundance (log10): 2.79

Sequence: GGGTCCACTTGGGTTCTAACCTGTTGCAT (site GGGTCCACTAA)
- recombinant barcode read abundance (log10): 0.481

Sequence: GGGTCCACTTGGGTTCTAACCTGTTGCAT (site GGGTCCACTAC)
- recombinant barcode read abundance (log10): 0.13

Sequence: GGGTCCACTTGGGTTCTAACCTGTTGCAT (site GGGTCCACTAG)
- recombinant barcode read abundance (log10): 0.699

Sequence: GGGTCCACTTGGGTTCTAACCTGTTGCAT (site GGGTCCACTAT)
- recombinant barcode read abundance (log10): 2.17

Sequence: GGGTCCACTTGGGTTCTAACCTGTTGCGT (site GGGTCCACTAA)
- recombinant barcode read abundance (log10): 0.239

Sequence: GGGTCCACTTGGGTTCTAACCTGTTGCGT (site GGGTCCACTAC)
- recombinant barcode read abundance (log10): 2.82

Sequence: GGGTCCACTTGGGTTCTAACCTGTTGCGT (site GGGTCCACTAG)
- recombinant barcode read abundance (log10): 1.5

Sequence: GGGTCCACTTGGGTTCTAACCTGTTGCGT (site GGGTCCACTAT)
- recombinant barcode read abundance (log10): 1.45

Sequence: GGGTCCTCTTGGGTTCTAACCTGTTGCCC (site GGGTCCTCTAG)
- recombinant barcode read abundance (log10): 1.36

Sequence: GGGTCCTCTTGGGTTCTAACCTGTTGCCC (site GGGTCCTCTCG)
- recombinant barcode read abundance (log10): 0.0863

Sequence: GGGTCCTCTTGGGTTCTAACCTGTTGCCC (site GGGTCCTCTGG)
- recombinant barcode read abundance (log10): 1.23

Sequence: GGGTCCTCTTGGGTTCTAACCTGTTGCCC (site GGGTCCTCTTG)
- recombinant barcode read abundance (log10): 0.0208

Sequence: GGGTCCTCTTGGGTTCTAACCTGTTGCCG (site GGGTCCTCTAG)
- recombinant barcode read abundance (log10): 1.32

Sequence: GGGTCCTCTTGGGTTCTAACCTGTTGCCG (site GGGTCCTCTCG)
- recombinant barcode read abundance (log10): 2.01

Sequence: GGGTCCTCTTGGGTTCTAACCTGTTGCCG (site GGGTCCTCTGG)
- recombinant barcode read abundance (log10): 0.422

Sequence: GGGTCCTCTTGGGTTCTAACCTGTTGCCG (site GGGTCCTCTTG)
- recombinant barcode read abundance (log10): 0.205

Sequence: GGGTTCACTTGGGTTCTAACCTGTTGCCG (site GAGTTCACTAG)
- recombinant barcode read abundance (log10): 0.0415

Sequence: GGGTTCACTTGGGTTCTAACCTGTTGCCG (site GGGTTCACTCG)
- recombinant barcode read abundance (log10): 1.43

Sequence: GGGTTGCCTTGGGTTCTAACCTGTTGCCT (site GAGTTGCCTAG)
- recombinant barcode read abundance (log10): 0.945

Sequence: GGGTTGCCTTGGGTTCTAACCTGTTGCCT (site GCGTTGCCTAG)
- recombinant barcode read abundance (log10): 1.1

Sequence: GGGTTGCCTTGGGTTCTAACCTGTTGCCT (site GGGTTGCCTAG)
- recombinant barcode read abundance (log10): 1.46

Sequence: GGGTTGCCTTGGGTTCTAACCTGTTGCCT (site GTGTTGCCTAG)
- recombinant barcode read abundance (log10): 0.144

Sequence: GGTAAGACTTGGGTTCTAACCTGTTGCCT (site GGAAAGACTAG)
- recombinant barcode read abundance (log10): 0.31

Sequence: GGTAAGACTTGGGTTCTAACCTGTTGCCT (site GGCAAGACTAG)
- recombinant barcode read abundance (log10): 0.318

Sequence: GGTAAGACTTGGGTTCTAACCTGTTGCCT (site GGGAAGACTAG)
- recombinant barcode read abundance (log10): 0.197

Sequence: GGTAAGACTTGGGTTCTAACCTGTTGCCT (site GGTAAGACTAG)
- recombinant barcode read abundance (log10): 1.47

Sequence: GGTATGTCTTGGGTTCTAACCTGTTGCTG (site CGAATGTCTCA)
- recombinant barcode read abundance (log10): 0.119

Sequence: GGTATGTCTTGGGTTCTAACCTGTTGCTG (site GGTATGTCTCA)
- recombinant barcode read abundance (log10): 0.857

Sequence: GGTATGTCTTGGGTTCTAACCTGTTGCTT (site GCTATGTCTAG)
- recombinant barcode read abundance (log10): 0.0865

Sequence: GGTATGTCTTGGGTTCTAACCTGTTGCTT (site GGTATGTCTAA)
- recombinant barcode read abundance (log10): 0.641

Sequence: GGTCAACCTTGGGTTCTAACCTGTTGCCT (site GATCAACCTAG)
- recombinant barcode read abundance (log10): 0.394

Sequence: GGTCAACCTTGGGTTCTAACCTGTTGCCT (site GCTCAACCTAG)
- recombinant barcode read abundance (log10): 0.172

Sequence: GGTCAACCTTGGGTTCTAACCTGTTGCCT (site GGTCAACCTAG)
- recombinant barcode read abundance (log10): 1.14

Sequence: GGTCAACCTTGGGTTCTAACCTGTTGCCT (site GTTCAACCTAG)
- recombinant barcode read abundance (log10): 0.486

Sequence: GGTCAGTCTTGGGTTCTAACCTGTTGCGG (site GGTCAGTCTCC)
- recombinant barcode read abundance (log10): 1.84

Sequence: GGTCAGTCTTGGGTTCTAACCTGTTGCGG (site TAGTTTACTTA)
- recombinant barcode read abundance (log10): 0.0859

Sequence: GGTCATGCTTGGGTTCTAACCTGTTGCCT (site GGTCATACTAG)
- recombinant barcode read abundance (log10): 0.169

Sequence: GGTCATGCTTGGGTTCTAACCTGTTGCCT (site GGTCATCCTAG)
- recombinant barcode read abundance (log10): 0.131
